Patent US10238657B2, “Heterocyclic compounds for treating psoriasis” (JS INNOPHARM (SHANGHAI LTD.), priority 2015, dated 2019)

How the values were obtained:
[1] = tested on: HaCaT cells; experiment: Morphological examination of the effect on HaCaT cell differentiation; assay type: cell-based, human; details: 48 h incubation, immunohistochemical staining
Procedure: HaCaT cells were cultured in DMEM culture medium containing 10% FBS under 37° C. and 5% CO2 concentration. When reaching 80% of the culture bottle area and after digestion by 0.25% trypsin, the cells were adjusted to a concentration of 4×10^4/ml and moved to a 6-well plate respectively (containing sterilized slide). Compound solutions were added. The cells were applied to the corresponding wells, and a blank control group (saline) was set. Both the sample groups and the control group were placed in a cell incubator at 37° C. Immumohistochemical staining was conducted after incubation at 48 h.
The imagine in FIG. 1A is dark brown, indicating large amount of keratin is present. […] Compound No. 5 underwent cornification (positive result).

[2] = tested on: mouse tail epidermis; experiment: Effect on mouse tail epidermis (granular layer of tail scales); assay type: in vivo; details: cream 5% (w/w), 100 μl once daily, 7 days, female mice, n = 10
Procedure: 70 female mice were randomly divided into several groups: (a) saline control group, saline was used in each administration; (b) blank cream group, blank cream was used in each administration; (c) calcipotriol control group, calcipotriol in cream (5% w/w) was used in each administration; (d) four testing groups, Compound No 5 in cream at 0.5%, 1%, 2%, and 4% (w/w), respectively, was used in each administration. 100 μl of corresponding treatment was applied to the same position on the tail of the mice once daily for seven successive days. The mice were sacrificed 1 hour after the last application. The treated skin parts were taken for pathological examination, and the tail scales of each mouse was assessed under a microscope. The number of scales having a granular layer in every 100 scales was counted, and the result was expressed as percentage.

[3] = tested on: mouse vaginal epidermal cells; experiment: Effect on mitosis of mouse vaginal epidermal cells; assay type: in vivo; details: cream 5% w/w, 25 μl intravaginal once daily, 3 days, estradiol-treated mice, n = 6
Procedure: Except for the saline control group, sexually mature female mice were injected with estradiol subcutaneously at a dosage of 35 mg/kg for 3 successive days. On the fourth day, in-estrus mice were selected with vaginal smear. The mice were randomly divided into several groups: (a) saline control group, saline was used in each administration; (b) blank cream group, blank cream was used in each administration; (c) calcipotriol control group, calcipotriol in cream (5% w/w) was used in each administration; (d) four testing groups, Compound No 5 in cream at concentration of 0.5%, 1%, 2%, and 4% (w/w), respectively, was used in each application. 25 μl corresponding treatment was injected into the vagina of the mice once daily for 3 successive days. Colchicine (15 mg/Kg) was intraperitoneally injected 2 hours after the last dosing. The mice were sacrificed 6 hours after the injection of colchicine. The vaginal tissue was taken out for pathological examination. The number of mitosis in one hundred basal cells was counted, which was named as the mitotic index.

[4] = tested on: guinea pig ear epidermis; experiment: Propranolole hydrochloride-induced psoriasis in guinea pig model; assay type: in vivo; details: cream 5% w/w, 200 μl on both ears twice daily, 7 days
Procedure: Except for those in Saline control group, guinea pigs were treated with propranolole hydrochloride cream (5% w/w, 200 μl) uniformly applied on the back of both ears twice daily for four successive weeks. After four weeks, the […] were divided into several groups, namely, blank cream group, calcipotriol group, and four testing cream groups with Compound 5 at concentration of 0.5%, 1%, 2%, and 4% (w/w)), respectively. The guinea pigs in Saline control group were treated with saline on the back of both ears; the guinea pigs in other groups were treated with corresponding cream on the back of both ears (200 μl) twice daily for 7 successive days. The guinea pigs were examined during the experiment period and sacrificed 1 hour after the last dosing.

[5] = tested on: chick chorioallantoic membrane; experiment: Chick chorioallantoic membrane (CAM) angiogenesis model; assay type: in vivo, chicken; details: 4.0 μg/egg, 48 h
Procedure: Fresh eggs were incubated for 6 successive days under 37° C. and 50% humidity. On the 6th day, live eggs were identified and taken out for window-opening. First, the chorioallantoic membrane was located with illumination. Droplets of Compound No. […] After air dry, the filter paper was placed on the chorioallantoic membrane gently without contacting big vessels. The window was sealed with a transparent adhesive tape. The eggs were incubated for 48 hours continuously. The transparent adhesive tape was then uncovered. The window was enlarged and photos were taken under a dissecting microscope (FIGS. 2 A-B). New vessels were counted based on the number of blood vessel branch points in each photo. Inhibitory rate=100−[(number of new blood vessels in treatment group at 24 h)/(number of new blood vessels in treatment group at 0 h)]/[(number of blood vessels in negative control group at 24 h)/(number of blood vessels in negative control group at 0 h)]×100%.

[6] = tested on: HaCaT cells; experiment: In-vitro screening with MTT method, inhibition of proliferation of HaCaT cells; assay type: cell-based, human; details: about 48 hours incubation
Procedure: Compound No. 5 was dissolved in DMSO, and gradiently diluted with PBS to prepare solutions at concentration of 1000 μg/ml, 100 μg/ml, 10 μg/ml, 1 μg/ml, 0.1 μg/ml, and 0.01 μg/ml, respectively. Cis-platinum (CDDP) was used as positive control, and sample solutions were prepared with the same method. The sample solutions were added into a 96-well plate placed with the growth phase human immortalized keratinocyte (HaCaT) cells (Pharmacology Laboratory of Shanghai Institute of Pharmaceutical Industry), and were incubated for about 48 hours. The cell relative survival rate was determined by the MTT method, and calculated according to the following formula based on the light absorption value at […]. Cell relative survival rate=(Light absorption value of sample treatment group—background light absorption value)/(Light absorption value of DMSO treatment group—background light absorption value).

| Structure (SMILES) | Test Results, effect on HaCat cell differentiation [1] | further results |
| --- | --- | --- |
| Cc1cnc(Nc2ccc(C3CCN(C(C)C)CC3)cc2Cl)nc1-c1cc2n(c1)CCN([C@H](CO)c1cccc(Cl)c1)C2=O [Compound 13, (S)-7-(2-((2-chloro-4-(1-isopropylpiperidin-4-yl)phenyl)amino)-5-methylpyrimidin-4-yl)-2-(1-(3-chlorophenyl)-2-hydroxyethyl)-3,4-dihydropyrrolo[1,2-a]pyrazin-1(2H)-one] | Positive |  |
| C=C1/C(=C\C=C2/CCC[C@]3(C)[C@@H]([C@H](C)/C=C/[C@@H](O)C4CC4)CC[C@@H]23)C[C@@H](O)C[C@@H]1O [Calcipotriol, calcipotriol, reference compound] |  | Scales quantity in granular layer * 100% [2]: 50.50 ± 4.95 %; Mitotic cell number/total cell number (%) [3]: 15.33 ± 1.21 %; Epidermal thickness (μm) [4]: 158.72 ± 2.93 μm |
| Cc1cnc(NC2CCCCC2)nc1-c1cc2n(c1)CCN([C@H](CO)c1cccc(Cl)c1)C2=O [Compound 20, (S)-2-(1-(3-chlorophenyl)-2-hydroxyethyl)-7-(2-(cyclohexylamino)-5-methylpyrimidin-4-yl)-3,4-dihydropyrrolo[1,2-a]pyrazin-1(2H)-one] | Positive |  |
| Cc1cnc(Nc2ccc(F)cc2)nc1-c1cc2n(c1)CCN([C@H](CO)c1cccc(Cl)c1)C2=O [Compound 17, (S)-2-(1-(3-chlorophenyl)-2-hydroxyethyl)-7-(2-((4-fluorophenyl)amino)-5-methylpyrimidin-4-yl)-3,4-dihydropyrrolo[1,2-a]pyrazin-1(2H)-one] | Positive |  |
| Cc1cnc(Nc2ccc(F)cc2Cl)nc1-c1cc2n(c1)CCN([C@H](CO)c1ccc(F)cc1)C2=O [Compound 10, (S)-7-(2-((2-chloro-4-fluorophenyl)amino)-5-methylpyrimidin-4-yl)-2-(1-(4-fluorophenyl)-2-hydroxyethyl)-3,4-dihydropyrrolo[1,2-a]pyrazin-1(2H)-one] | Positive |  |
| Cc1cnc(Nc2ccc(C3CCNCC3)cc2Cl)nc1-c1cc2n(c1)CCN([C@H](CO)c1cccc(Cl)c1)C2=O [Compound 12, (S)-7-(2-((2-chloro-4-(piperidin-4-yl)phenyl)amino)-5-methylpyrimidin-4-yl)-2-(1-(3-chlorophenyl)-2-hydroxyethyl)-3,4-dihydropyrrolo[1,2-a]pyrazin-1(2H)-one] | Positive |  |
| Cc1cnc(NC2CCOCC2)nc1-c1cc2n(c1)CCN(C(c1ccc(Cl)c(F)c1)c1cnn(C)c1)C2=O (centres unmarked) [Compound 19, 2-((4-chloro-3-fluorophenyl)(1-methyl-1H-pyrazol-4-yl)methyl)-7-(5-methyl-2-((tetrahydro-2H-pyran-4-yl)amino)pyrimidin-4-yl)-3,4-dihydropyrrolo[1,2-a]pyrazin-1(2H)-one] | Positive |  |
| CNC(=O)c1cc(Oc2ccc(NC(=O)Nc3ccc(Cl)c(C(F)(F)F)c3)cc2)ccn1 [Sorafeni, Sorafenib, reference compound] |  | Number of new blood vessels 48 h ([5]; n = 3): 18.17 ± 7.60; Inhibitory rate (%) ([5]; versus PBS group): 77.27% |
| N.N.[Cl][Pt][Cl] [CDDP, Cis-platinum, reference compound] |  | HaCaT Cells IC50 [6]: 1.41 µg/mL |
| Cc1cnc(Nc2ccc(F)cc2Cl)nc1-c1cc2n(c1)CCN([C@H](C)c1cccc(Cl)c1)C2=O [Compound 6, (R)-7-(2-((2-chloro-4-fluorophenyl)amino)-5-methylpyrimidin-4-yl)-2-(1-(3-chlorophenyl)ethyl)-3,4-dihydropyrrolo[1,2-a]pyrazin-1(2H)-one] | Positive |  |
| C[C@H](c1cccc(Cl)c1)N1CCn2cc(-c3n[nH]c4ncc(-c5ccccc5)cc34)cc2C1=O [Compound 3, (R)-2-(1-(3-chlorophenyl)ethyl)-7-(5-phenyl-1H-pyrazolo[3,4-b]pyridin-3-yl)-3,4-dihydropyrrolo[1,2-a]pyrazin-1(2H)-one] | Positive |  |
| Cc1cnc(Nc2ccc(N3CCNCC3)cc2Cl)nc1-c1cc2n(c1)CCN([C@H](CO)c1cccc(Cl)c1)C2=O [Compound 11, (S)-7-(2-((2-chloro-4-(piperazin-1-yl)phenyl)amino)-5-methylpyrimidin-4-yl)-2-(1-(3-chlorophenyl)-2-hydroxyethyl)-3,4-dihydropyrrolo[1,2-a]pyrazin-1(2H)-one] | Positive |  |
| Cc1cnc(Nc2ccc(F)cc2Cl)nc1-c1cc2n(c1)CCN([C@H](CO)c1ccc(Cl)cc1)C2=O [Compound 8, (S)-7-(2-((2-chloro-4-fluorophenyl)amino)-5-methylpyrimidin-4-yl)-2-(1-(4-chlorophenyl)-2-hydroxyethyl)-3,4-dihydropyrrolo[1,2-a]pyrazin-1(2H)-one] | Positive |  |
| C[C@H](c1cccc(Cl)c1)N1CCn2cc(-c3c[nH]c4ncc(-c5ccccc5)cc34)cc2C1=O [Compound 2, (R)-2-(1-(3-chlorophenyl)ethyl)-7-(5-phenyl-1H-pyrrolo[2,3-b]pyridin-3-yl)-3,4-dihydropyrrolo[1,2-a]pyrazin-1(2H)-one] | Positive |  |
| Cc1cnc(Nc2ccc(F)cc2Cl)nc1-c1cc2n(c1)CCN([C@H](CO)c1cccc(F)c1)C2=O [Compound 9, (S)-7-(2-((2-chloro-4-fluorophenyl)amino)-5-methylpyrimidin-4-yl)-2-(1-(3-fluorophenyl)-2-hydroxyethyl)-3,4-dihydropyrrolo[1,2-a]pyrazin-1(2H)-one] | Positive |  |
| Cc1cnc(Nc2ccc(N3CCN(S(C)(=O)=O)CC3)cc2Cl)nc1-c1cc2n(c1)CCN([C@H](CO)c1cccc(Cl)c1)C2=O [Compound 16, (S)-7-(2-((2-chloro-4-(4-(methylsulfonyl)piperazin-1-yl)phenyl)amino)-5-methylpyrimidin-4-yl)-2-(1-(3-chlorophenyl)-2-hydroxyethyl)-3,4-dihydropyrrolo[1,2-a]pyrazin-1(2H)-one] | Positive |  |
| Cc1cnc(Nc2ccc(F)cc2Cl)nc1-c1cc2n(c1)CCCN([C@H](CO)c1cccc(Cl)c1)C2=O [Compound 7, (S)-8-(2-((2-chloro-4-fluorophenyl)amino)-5-methylpyrimidin-4-yl)-2-(1-(3-chlorophenyl)-2-hydroxyethyl)-2,3,4,5-tetrahydro-1H-pyrrolo[1,2-a][1,4]diazepin-1-one] | Positive |  |
